With `COc1cc(OCCCN2CCc3cc(OC)c(OC)cc3C2)ccc1NC(=O)c1cccc2c(=O)c3cccc(C)c3[nH]c12` the melting point was 183 to 184 °C. Work on `CCOC1CC(n2cc(CC)c(=O)[nH]c2=O)OC1CO` (stereo not drawn) yielded a melting point of 157 °C. Molecule `CC(C)N(CCCC(=NNC(N)=S)c1ccccc1)C(=O)c1ccccc1` has a melting point of 107 to 109 °C. Molecule `COc1ccc(C2=NN(c3ccc(O)cc3)C(=O)[C@@H]3CC=CC[C@H]23)cc1OC` has a melting point of 111 to 112 °C. Molecule `CCCn1cnc2c1c1n[nH]c(=O)n1c(=O)n2CCC` has a melting point of 217 to 218 °C. With `CCCCc1ccc(C(=O)Nc2ccc3cc(CN4CCCC4)cnc3c2C)cc1` the melting point was 131 °C. Work on `O=C1c2ccc([N+](=O)[O-])cc2C(=O)c2c(O)ccc(O)c21` yielded a melting point of 226 to 228 °C. `O=c1c2c(O)cc(OCC3CS3)cc2oc2ccc3ccccc3c12` (stereo not drawn) showed a melting point of 167 to 168 °C. For `O=c1c2c(Cc3ccc(C(F)(F)F)cc3)n[nH]c2c2cccnc2n1-c1cccc(C(F)(F)F)c1`, the melting point was 145 to 148 °C. In the case of `CCC(C)C1Sc2ccccc2NC1=O` (stereo not drawn), the melting point is reported as 99 to 100 °C. Work on `COC(=O)C(=O)NS(=O)(=O)Cc1ccccc1` yielded a melting point of 117 to 122 °C. Work on `COc1ccc(-n2nc(Sc3ccccc3)c(C)c(C#N)c2=O)cc1` yielded a melting point of 179 to 180 °C. In the case of `COCCNC(=O)c1cccc(-c2cccc3cc(COc4cc(C(F)(F)F)ccn4)sc23)c1`, the melting point is reported as 186 to 187 °C. In the case of `O=C(CCCOc1cccc(CNC(=O)c2nc3ccccc3c(=O)[nH]2)c1)NO`, the melting point is reported as 164 to 168 °C. Work on `COC(=O)c1ccc(-c2nc(-c3cccc(OC(F)(F)F)c3)cs2)cc1` yielded a melting point of 132 to 134 °C. Work on `CC(C)(C)COc1cccc(C[C@H](N)[C@H](O)c2cccc(Cl)c2)c1` (racemic) yielded a melting point of 115 to 116 °C. For `COc1ccc2cccc(C(C#N)O[Si](C)(C)C)c2c1` (stereo not drawn), the melting point was 123 to 125 °C. `CCOC(=O)CCCCC(NS(=O)(=O)c1ccccc1)c1ccc2ccccc2c1` (stereo not drawn) showed a melting point of 81 to 84 °C. For `Oc1ccc(N2CCN(c3nc4ccccc4o3)CC2)cc1`, the melting point was 161 to 163 °C. `CC(C)=CCc1c(O)cc(O)cc1-c1cc2ccc(O)cc2o1` gave a melting point of 82 to 83 °C. `CCCCCCCCCCCOc1ccc(C(=O)O)cc1OCCCCCCCCCCC` gave a melting point of 98 to 101 °C. `COc1cc(C(C)C)c2c(c1)S(=O)(=O)N(CBr)C2=O` gave a melting point of 157 to 159 °C. With `COC(=O)CC=CC=Cc1ccccc1` the melting point was 71 °C. `CSC(N)=C(Cc1ccccc1)[N+](=O)[O-]` showed a melting point of 112 °C. `CC(=O)OCC1OC(SCCCc2ccccc2)C(OC(C)=O)C(OC(C)=O)C1OC(C)=O` (stereo not drawn) showed a melting point of 73 to 74 °C. With `CNn1c(C)nc(N2CCc3ccccc3CC2)c(C#N)c1=O` the melting point was > 200 °C. `O=[N+]([O-])c1ccccc1NCC12CC3CC(CC(C3)C1)C2` gave a melting point of 106 to 109 °C. With `CCOC(=O)c1ccc(NC(=O)c2sc3ccc(OC)cc3c2OC(C)C)nc1` the melting point was 131 to 133 °C. `O=C(O)CC1c2ccccc2C=Cc2ccccc21` showed a melting point of 167 to 168 °C. Molecule `Cc1noc(NS(=O)(=O)c2ccccc2)c1Cl` has a melting point of 140 to 143 °C. Molecule `CC(C)(C)OC(=O)NCc1ccc(CN2CCC(c3ccccc3)CC2)cc1` has a melting point of 73 to 74 °C. For `CCOC(=O)c1cccc2c(=O)cc(-c3ccc(OCc4ccc5ccccc5c4)cc3)oc12`, the melting point was 245 to 249 °C. In the case of `Oc1cccc2c3ccccc3n(C3CCCCO3)c12` (stereo not drawn), the melting point is reported as 137 to 140 °C. For `O=C(Nc1ccccc1C(=O)NCc1ccccc1)N[C@@H](Cc1ccc(NC(=O)c2c(Cl)cccc2Cl)cc1)C(=O)O`, the melting point was 165 °C. `COC(=O)C(=O)N(N=C(C#N)c1ccc(C#N)cc1)c1c(Cl)cc(C(F)(F)F)cc1Cl` gave a melting point of 194 to 195 °C. Molecule `Cc1c(C(=O)N(CC(=O)O)c2ccc(OCC(C)(C)C)c(C#N)c2)cnn1-c1ccc(F)cc1` has a melting point of 105 to 110 °C. With `CN1CCN(c2ccc(NC(=O)n3ccc4cc(Oc5cc(CC(N)=O)ncn5)ccc43)cc2C(F)(F)F)CC1` the melting point was 238 to 240 °C. `COC(=O)N1CCN(c2n[nH]c(-c3ccc(Cl)cc3)c2-c2ccncc2)CC1` showed a melting point of 264 to 265 °C. Work on `CCCNS(=O)(=O)c1cc(C(=O)CCC(=O)O)ccc1Cl` yielded a melting point of 106 °C. Work on `COc1ccc(C(=O)Nc2ccccc2)cc1NCc1ccc(C)c(C)c1` yielded a melting point of 163 to 164 °C. `CCN(CCCOc1ccc(C(=O)O)cc1)c1ccc(Cl)cc1` showed a melting point of 146 to 149 °C. Work on `COc1ccc(-c2cccc(NC(C)=O)c2)cc1OC1CCCC1` yielded a melting point of 112 to 114 °C. With `Cc1ccc(CC2(O)CCN(CCOC(=O)c3ccc(OCc4ccccc4)cc3)CC2)cc1` the melting point was 102 °C. `CC(=O)NC1(c2ccc(Cl)cc2)c2ccc(Cl)cc2-c2ncncc21` (stereo not drawn) gave a melting point of 238 to 241 °C. `CN(C(=O)COc1nc2cccc(F)c2s1)c1ccccc1` gave a melting point of 116 °C. `COCOc1cc(F)ccc1-c1cc(-c2cccc(Br)c2)c(C#N)c(N)n1` showed a melting point of 165 to 166 °C. For `O=C(O)c1cc(-n2c(-c3ccc(Cl)c(Cl)c3)cc3c2CCCC3)ccc1O`, the melting point was 210 to 211 °C. Molecule `COC(=O)c1c(Cc2ccc(C(=O)NCCO)cc2)c(=O)c2ccc(Cl)cc2n1-c1ccccc1` has a melting point of 162 to 164 °C. Molecule `Cc1ccsc1C(=O)c1sc(Nc2ccc(S(N)(=O)=O)cc2)nc1N` has a melting point of 284 to 286 °C. Molecule `O=C(c1ccc(Cl)cc1)c1ccc2nc(Cl)cc(CCc3cccc(Cl)c3)c2c1` has a melting point of 180 °C. Molecule `O=C(C=Cc1cccc(S(=O)(=O)NCc2cccnc2)c1)NO` has a melting point of 191 °C. With `Cn1cc(C2=C(c3cn(CCCNS(=O)(=O)c4ccccc4)c4ccccc34)C(=O)NC2=O)c2ccccc21` the melting point was 125 to 128 °C. Molecule `O=c1ccn(C2CC(O)C(CNC(c3ccccc3)(c3ccccc3)c3ccccc3Cl)O2)c(=O)[nH]1` (stereo not drawn) has a melting point of 129 to 131 °C. Work on `COC(=O)CCCc1c(-c2ccc(F)cc2)[nH]c2ccc(-c3ccc([N+](=O)[O-])cc3)cc12` yielded a melting point of 190 to 191 °C. `CCOC(=O)c1cnc2nn(C)cc2c1NCCCN(C)C` gave a melting point of 61 to 63 °C. With `CC1(CN=[N+]=[N-])SC2C(NC(=O)Cc3ccccc3)C(=O)N2C1C(=O)OCC(Cl)(Cl)Cl` (stereo not drawn) the melting point was 105 to 106 °C. For `CC=C(C)C1CCC2C3CCC4=CC(=O)CCC4(C)C3CCC12C` (stereo not drawn), the melting point was 157 to 165 °C. With `CCN(CC)C(=O)C(=O)c1c[nH]c2c1ccc1c3ccccc3[nH]c12` the melting point was > 295 °C. With `CCC(C)n1c2ccccc2c2ccccc21` (stereo not drawn) the melting point was 62 to 63 °C. `CCO/C(=N/OC(C)=O)C1Cc2cc(C(=O)CC)c(O)c(Cl)c2O1` (stereo not drawn) showed a melting point of 140 to 142 °C. `COC(=O)C1=C(C)NC(C)=C(C(=O)OC)C1c1ccccc1COC(C)=O` showed a melting point of 149 to 151 °C. Molecule `COCCc1nc2c(N)nc3ccccc3c2n1CCOCCNS(C)(=O)=O` has a melting point of 114 to 117 °C. `Nc1nc2ccc(NC(=O)[C@@H]3CCCN3C(=O)[C@@H](Cc3ccccc3)NS(=O)(=O)Cc3ccccc3)cc2s1` gave a melting point of 130 to 133 °C. `Cc1cnc(C)n2c1c(CCSC1=NCCN1)c1ccccc12` gave a melting point of 157 to 159 °C. `Cc1cnn(-c2ncc(C(=O)N3Cc4cccn4Cc4ccccc43)c(C(F)(F)F)n2)c1` showed a melting point of 214 to 217 °C. For `CC(=O)Oc1cc(OC(C)=O)c2ccccc2c1OC(C)=O`, the melting point was 136 to 137 °C. `CC1CCCCC1OC(=O)c1ncn2c1C1CCCN1C(=O)c1c(Cl)cccc1-2` (stereo not drawn) showed a melting point of 213 to 215 °C. `COc1ccc(CCNC(=O)Cc2ccc(OC)c(OC)c2)cc1OC` gave a melting point of 125 °C. With `O=C1C=C(c2ccc(C(F)(F)F)cc2C(F)(F)F)CO1` the melting point was 116 to 117 °C. Molecule `CNC(=O)C1CC2(CCN(CCCC(=O)c3ccc(F)cc3)C2)c2ccc(Cl)cc21` (stereo not drawn) has a melting point of 151 to 153 °C. Molecule `O=S(=O)(CCCl)c1ccc(Cl)cc1` has a melting point of 91 °C. `O=C(c1ccccc1)c1ccc(Nc2ncnc3ccc(-n4ccnc4)cc23)cc1Cl` showed a melting point of 220 to 223 °C. Molecule `Cn1nc2c(cc1=O)CCSc1ccccc1-2` has a melting point of 139 to 140 °C. `Cc1ccnc(N2C(=S)SCC2(C)O)c1` (stereo not drawn) gave a melting point of 119 °C. In the case of `CNC(=O)c1c(I)c(C(=O)O)c(I)c(C(=O)NC)c1I`, the melting point is reported as > 300 °C. Molecule `COc1ccc(CC(C)NC(C)=O)cc1OCc1ccccc1` (stereo not drawn) has a melting point of 139 °C. `Cc1cnc(NC(=O)Nc2ccc(N3CCN(C(=O)Nc4ccc(OCCO)cc4C(F)(F)F)CC3)cc2)s1` gave a melting point of 118 to 120 °C. With `COC(=O)C(C)(N)Cc1c[nH]c2ccc(OC(F)F)cc12` (racemic) the melting point was 140 to 142 °C. Molecule `N#CCCOc1ccc(Oc2ccccc2)cc1` has a melting point of 81 to 83 °C. In the case of `CC1CCN(c2nccc(Oc3ccc(NC(=O)c4cc(F)cc(N5CCOCC5)c4)c4ccccc34)n2)CC1`, the melting point is reported as 117 to 118 °C. Work on `O=c1cc2c(n[nH]1)-c1ccc(O)cc1CC2` yielded a melting point of 300 °C. `COc1ccc2c(n1)C1(CO2)C(=O)N(Cc2ccc(C(F)(F)F)o2)c2ccccc21` (stereo not drawn) showed a melting point of 145 to 147 °C. With `Cc1c(O)cc(O)c(C)c1C(=O)OCc1ccc([N+](=O)[O-])cc1` the melting point was 164 to 166 °C. In the case of `COC(=O)c1cccc(NC(=O)C=Cc2ccc(OC)c(OC)c2)c1N`, the melting point is reported as 144 to 146 °C. In the case of `Cc1cc(C)nc(NC(=O)Cc2ccsc2)c1`, the melting point is reported as 123 to 124 °C. Work on `CCOc1cc(COc2nn(Cc3ccccc3)cc2CO)ccc1OCc1nc(-c2ccco2)oc1C` yielded a melting point of 137 to 138 °C. Work on `CC1(C)Oc2ccc([N+](=O)[O-])cc2C(n2ccccc2=O)=C1CN` yielded a melting point of 231 °C. `CCOC(=O)C(Cl)=Cc1cccc([N+](=O)[O-])c1` showed a melting point of 75 °C. Work on `CC1=C(c2ccc(OCC(=O)O)c(Cl)c2Cl)CC(C)CC1=O` (stereo not drawn) yielded a melting point of 170 to 173 °C. For `CC(=O)Nc1c([N+](=O)[O-])cc(Br)c2c1CCN(C)C2`, the melting point was 190 to 192 °C. Work on `COc1ccc(NS(=O)(=O)c2sc3ccc(Cl)cc3c2C)cc1N1CCN(C(=O)OC(C)(C)C)CC1` yielded a melting point of 100 to 103 °C. `COc1cc2c(cc1OC)C(O)(CN)CCC2` (stereo not drawn) gave a melting point of 107 to 109 °C. Work on `Cc1nc2ccc3c(c2o1)OC(CN1CC=C(c2c[nH]c4ccc(Cl)cc24)CC1)CO3` (stereo not drawn) yielded a melting point of 144 to 145 °C. `Cc1c(C(O)Cc2ccccc2)cc(I)[nH]c1=O` (stereo not drawn) gave a melting point of 166 to 167 °C. For `CCCCCCCCCCCCCCCCOC(=O)c1ccc(-c2nnn[nH]2)nc1`, the melting point was 139 to 140 °C. For `Ic1ccnc2c1CCCN2`, the melting point was 117 to 118 °C. For `CCc1ccc2c(c1)N(Cc1ccc(-c3ccccc3C#N)cc1)C(=O)CC2(C)C`, the melting point was 171 to 172 °C. For `Cc1ccc(OCC(CO)NC(C)(C)C)c(-c2ccc(=S)[nH]n2)c1` (stereo not drawn), the melting point was 130 °C.

Source: a melting point compilation (Tetko et al.; mined from patent text by program, amines drawn as free bases though some values may be those of a salt)
